Reference: patent US20110183969A1, “ANTIFUNGAL COMBINATION THERAPY” (priority 2008, published 2011)
Converted amounts (≈) assume the structure as drawn.

How the values were obtained:
Experiment in all cases: MIC (YAG medium)
Assay type in all cases: cell-based
[1] = system: Aspergillus terreus AT49; conditions: YAG medium, MIC banded into grades, AT49; for MIC: Aspergillus terreus, read-out: MIC A. terreus 49 (grade)
Description: (§1) Between 1 and 5 mgs of compound were accurately weighed out into a sterile Eppendorf tube. The compound was dissolved in DMSO to give a solution containing 5 mg/mL. Tubes were stored at −20° C. until required.
(§2) On the day of testing thawed solutions were vortex mixed to ensure homogeneity. 30 μL of solution was removed and added to 570 μL of sterile water in a separate sterile Eppendorf The thoroughly mixed solution was used to prepare a series of doubling dilutions in water, in a deep well plate. […] replicate plates were prepared using a Minitrak by aspirating 20 μL from each well into eleven clear polystyrene 96 well plates.
(§3) Spores of Aspergillus spp. (Aspergillus fumigatus [two strains], Aspergillus terreus [two strains], Aspergillus niger and Aspergillus flavus) were harvested from cultures grown on Sabarauds agar for 5 days, and resuspended in PBS/Tween 80 to approx 1×10^7 cfu/mL. Other filamentous fungi (Absidia corymbifera, Fusarium solani, Rhizomucor, Scedosporium spp., Trichophyton spp.), were grown on Sabarauds agar for 2-10 days and spores/hyphae resuspended in PBS/Tween to give approx 1×10^7 cfu/mL. Candida species (Candida albicans, Candida glabrata, Candida krusei, Candida parapsilosis and Candida tropicalis) were grown on Sabarauds agar, cells were harvested from the agar using a sterile loop and resuspended in PBS/Tween 80 to approx 1×10^6 cfu/mL. Each organism suspension was diluted in RPMI medium, containing 2% glucose and 0.135 M MOPS buffer (pH 7.0) to 0.5−2×10^4 cfu/mL for Aspergillus spp. and other filamentous fungi and 0.5-2×10^3 cfu/mL for yeast. 80 μL of an organism suspension was added to each well of the plate containing drug dilutions.
(§4) This produced MIC plates with a drug range 50-0.05 mg/L and organism inocula of 1-2×10^4 cfu/mL for Aspergillus spp. and other filamentous fungi and 1-2×10^3 cfu/mL for yeasts. All plates were incubated for 24-48 hrs at 35° C. Growth was assessed by monitoring the optical density at 485 nm for each well. The MIC of a compound is the lowest drug concentration that inhibits growth of an organism by >80% compared with a drug free control. MICs are recorded as mg/L. Other growth media can be used for susceptibility testing, and the activity of the described compounds can also be assessed in a medium comprising 1% glucose, 1% ammonium chloride and 0.5% yeast extract (YAG medium). To perform MIC tests in this medium, dilutions of compounds are prepared in microtitre plates as described above. Fungal strains to be tested are grown and harvested in an identical manner to that described above, each organism suspension is then diluted in YAG medium to 0.5-2×10^4 cfu/mL for Aspergillus spp. and other filamentous fungi and 0.5-2×10^3 cfu/mL for yeast. 80 μL of an organism suspension was added to each well of the plate containing drug dilutions. This produced MIC plates with a drug range 50-0.05 mg/L and organism inocula of 1-2×10^4 cfu/mL for Aspergillus spp. and other filamentous fungi and 1-2×10^3 cfu/mL for yeasts. All plates were incubated for 24 hrs at 35° C. Growth was assessed by monitoring the optical density at 485 nm for each well. The MIC of a compound is the lowest drug concentration that inhibits growth of an organism by >70% compared with a drug free control. MICs are recorded as mg/L. In cases where the MIC of an organism is […] mg/L the MIC is repeated using a concentration range of 0.5-0.0005 mg/L. MIC tests in YAG medium have more clear-cut endpoints and have slightly lower MICs than those performed in RPMI medium.
(§5) The following organisms were tested: Absidia corymbifera, Aspergillus flavus, Aspergillus fumigatus AF293 and AF210, Aspergillus niger, Aspergillus terreus AT4 and AT49, Candida albicans, Candida glabrata, Candida krusei, Candida parapsilosis, Candida tropicalis, Fusarium solani, Rhizomucor sp., Scedosporium apiospermum, Scedosporium prolificans, Trichophyton mentagrophytes, and Trichophyton rubrum.

[2] = system: Aspergillus niger; conditions: YAG medium, MIC banded into grades; for MIC: Aspergillus niger, read-out: MIC A. niger (grade)
Description: as §1, §2, §3, §4, §5

[3] = system: Aspergillus flavus; conditions: YAG medium, MIC banded into grades; for MIC: Aspergillus flavus, read-out: MIC A. flavus (grade)
Description: as §1, §2, §3, §4, §5

[4] = system: Aspergillus terreus AT4; conditions: YAG medium, MIC banded into grades, AT4; for MIC: Aspergillus terreus, read-out: MIC A. terreus (grade)
Description: as §1, §2, §3, §4, §5

[5] = system: Aspergillus fumigatus AF293; conditions: YAG medium, MIC banded into grades, AF293; for MIC: Aspergillus fumigatus, read-out: MIC A. fumigatus (grade)
Description: as §1, §2, §3, §4, §5

[6] = system: Aspergillus fumigatus AF210; conditions: YAG medium, MIC banded into grades, AF210; for MIC: Aspergillus fumigatus, read-out: MIC A. fumigatus 210 (grade)
Description: as §1, §2, §3, §4, §5

Cc1cc(C)nc(N2CCN(c3ccc(NC(=O)C(=O)c4c(C5CCOCC5)cc5ccccn45)cc3)CC2)c1 [Example 66, N-{4-[4-(4,6-Dimethyl-pyridin-2-yl)-piperazin-1-yl]-phenyl}-2-oxo-2-[2-(tetrahydro-pyran-4-yl)-indolizin-3-yl]-acetamide]
MIC [1]: < 1 µg/mL
MIC [2]: < 1 µg/mL
MIC [3]: < 1 µg/mL
MIC [4]: < 1 µg/mL
MIC [5]: < 1 µg/mL
MIC [6]: < 1 µg/mL

O=C(Nc1ccc(N2CCN(c3cccc(NCCO)n3)CC2)cc1)C(=O)c1c(-c2ccccc2)cc2ccccn12 [Example 87, N-(4-{4-[6-(2-hydroxyethylamino)-pyridin-2-yl]-piperazin-1-yl}-phenyl)-2-oxo-2-(2-phenyl-indolizin-3-yl)-acetamide]
MIC [1]: < 1 µg/mL
MIC [2]: > 10 µg/mL
MIC [3]: < 1 µg/mL
MIC [4]: 1 to 10 µg/mL (≈ 1.78 to 17.8 µM)
MIC [5]: < 1 µg/mL
MIC [6]: 1 to 10 µg/mL (≈ 1.78 to 17.8 µM)

Cc1cc(OCCOc2ccc(NC(=O)C(=O)c3c(-c4ccccc4)cc4ccccn34)cc2)cc(C)n1 [Example 71, N-{4-[2-(2,6-Dimethyl-pyridin-4-yloxy)-ethoxy]-phenyl}-2-oxo-2-(2-phenyl-indolizin-3-yl)-acetamide]
MIC [1]: < 1 µg/mL
MIC [2]: 1 to 10 µg/mL (≈ 1.98 to 19.8 µM)
MIC [3]: 1 to 10 µg/mL (≈ 1.98 to 19.8 µM)
MIC [4]: < 1 µg/mL
MIC [5]: < 1 µg/mL
MIC [6]: < 1 µg/mL

Cc1cc(C)nc(N2CCN(c3ccc(NC(=O)C(=O)c4c(-c5ccccc5)cc5ccccn45)cc3C(=O)O)CC2)c1 [Example 84, 2-[4-(4,6-Dimethyl-pyridin-2-yl)-piperazin-1-yl]-5-[2-oxo-2-(2-phenyl-indolizin-3-yl)-acetylamino]-benzoic acid]
MIC [1]: 1 to 10 µg/mL (≈ 1.74 to 17.4 µM)
MIC [2]: 1 to 10 µg/mL (≈ 1.74 to 17.4 µM)
MIC [3]: < 1 µg/mL
MIC [4]: 1 to 10 µg/mL (≈ 1.74 to 17.4 µM)
MIC [5]: < 1 µg/mL
MIC [6]: 1 to 10 µg/mL (≈ 1.74 to 17.4 µM)

Cc1cc(C)nc(N2CCN(c3ccc(NC(=O)C(=O)c4c(C(C)(C)C)cc5ccccn45)cc3)CC2)c1 [Example 62, 2-(2-tert-Butyl-indolizin-3-yl)-N-{4-[4-(4,6-dimethyl-pyridin-2-yl)-piperazin-1-yl]-phenyl}-2-oxo-acetamide]
MIC [1]: > 10 µg/mL
MIC [2]: > 10 µg/mL
MIC [3]: > 10 µg/mL
MIC [4]: 1 to 10 µg/mL (≈ 1.96 to 19.6 µM)
MIC [5]: > 10 µg/mL
MIC [6]: > 10 µg/mL

CCc1cccc(N2CCN(c3ccc(NC(=O)C(=O)c4c(-c5ccccc5)cc5ccccn45)cc3)CC2)n1 [Example 73, N-{4-[4-(6-ethyl-pyridin-2-yl)-piperazin-1-yl]-phenyl}-2-oxo-2-(2-phenyl-indolizin-3-yl)-acetamide]
MIC [1]: < 1 µg/mL
MIC [2]: < 1 µg/mL
MIC [3]: < 1 µg/mL
MIC [4]: < 1 µg/mL
MIC [5]: < 1 µg/mL
MIC [6]: < 1 µg/mL

CS(=O)(=O)NC(=O)c1ccc(NC(=O)C(=O)c2c(-c3ccccc3)cc3ccccn23)cc1 [Example 5, N-(4-methanesulfonylaminocarbonyl-phenyl)-2-oxo-2-(2-phenyl-indolizin-3-yl)-acetamide]
MIC [1]: > 10 µg/mL
MIC [2]: > 10 µg/mL
MIC [3]: > 10 µg/mL
MIC [4]: > 10 µg/mL
MIC [5]: > 10 µg/mL
MIC [6]: > 10 µg/mL

O=C(Nc1ccc(N2CCN(c3cccnc3)CC2)cc1)C(=O)c1c(-c2ccccc2)cc2ccccn12 [Example 59, 2-Oxo-2-(2-phenyl-indolizin-3-yl)-N-[4-(4-pyridin-3-yl-piperazin-1-yl)-phenyl]-acetamide]
MIC [1]: < 1 µg/mL
MIC [2]: < 1 µg/mL
MIC [3]: < 1 µg/mL
MIC [4]: < 1 µg/mL
MIC [5]: < 1 µg/mL
MIC [6]: < 1 µg/mL

O=C(Nc1ccc(NCCOc2ccccn2)cc1)C(=O)c1c(-c2ccccc2)cc2ccccn12 [Example 90, 2-Oxo-2-(2-phenyl-indolizin-3-yl)-N-{4-[2-(pyridin-2-yloxy)-ethylamino]-phenyl}-acetamide]
MIC [1]: < 1 µg/mL
MIC [2]: < 1 µg/mL
MIC [3]: < 1 µg/mL
MIC [4]: < 1 µg/mL
MIC [5]: < 1 µg/mL
MIC [6]: < 1 µg/mL

CC(C)c1ncc(C(C)(C)c2ccc(NC(=O)C(=O)c3c(-c4ccccc4)cc4ccccn34)cc2)n1C [Example 17, N-{4-[1-(2-Isopropyl-3-methyl-3H-imidazol-4-yl)-1-methyl-ethyl]-phenyl}-2-oxo-2-(2-phenyl-indolizin-3-yl)-acetamide]
MIC [1]: 1 to 10 µg/mL (≈ 1.98 to 19.8 µM)
MIC [2]: 1 to 10 µg/mL (≈ 1.98 to 19.8 µM)
MIC [3]: > 10 µg/mL
MIC [4]: 1 to 10 µg/mL (≈ 1.98 to 19.8 µM)
MIC [5]: > 10 µg/mL
MIC [6]: > 10 µg/mL

CCC(CC)N1CCN(c2ccc(NC(=O)C(=O)c3c(-c4ccccc4Cl)cc4ccccn34)cn2)CC1 [Example 10, 2-[2-(2-chloro-phenyl)-indolizin-3-yl]-N-{6-[4-(1-ethyl-propyl)-piperazin-1-yl]-pyridin-3-yl}-2-oxo-acetamide]
MIC [1]: < 1 µg/mL
MIC [2]: < 1 µg/mL
MIC [3]: < 1 µg/mL
MIC [4]: < 1 µg/mL
MIC [5]: < 1 µg/mL
MIC [6]: < 1 µg/mL

O=C(Nc1ccc(N2CCN(Cc3ccco3)CC2)cc1)C(=O)c1c(-c2ccccc2)cc2ccccn12 [Example 31, 4-[4-(2-Furan-2-yl-methyl-piperazin-yl)-phenyl]-2-oxo-2-(2-phenyl-indolizin-3-yl)-acetamide]
MIC A. terreus 49 (grade) [1]: 3 (A grade of 3 represents an MIC of less than 1 mg/L)
MIC A. niger (grade) [2]: 3 (A grade of 3 represents an MIC of less than 1 mg/L)
MIC A. flavus (grade) [3]: 3 (A grade of 3 represents an MIC of less than 1 mg/L)
MIC A. terreus (grade) [4]: 3 (A grade of 3 represents an MIC of less than 1 mg/L)
MIC A. fumigatus (grade) [5]: 3 (A grade of 3 represents an MIC of less than 1 mg/L)
MIC A. fumigatus 210 (grade) [6]: 3 (A grade of 3 represents an MIC of less than 1 mg/L)

COCCOc1cc(C)nc(N2CCN(c3ccc(NC(=O)C(=O)c4c(-c5ccccc5)cc5ccccn45)cc3)CC2)c1 [Example 57, N-(4-{4-[4-(2-Methoxy-ethoxy)-6-methyl-pyridin-2-yl]-piperazin-1-yl}-phenyl)-2-oxo-2-(2-phenyl-indolizin-3-yl)-acetamide]
MIC [1]: < 1 µg/mL
MIC [2]: < 1 µg/mL
MIC [3]: < 1 µg/mL
MIC [4]: < 1 µg/mL
MIC [5]: < 1 µg/mL
MIC [6]: < 1 µg/mL

Cc1ccnc(N2CCN(c3ccc(NC(=O)C(=O)c4c(-c5ccccc5)cc5ccccn45)cc3)CC2)c1 [Example 49, N-{4-[4-(4-Methyl-pyridin-2-yl)-piperazin-1-yl]-phenyl}-2-oxo-2-(2-phenyl-indolizin-3-yl)-acetamide]
MIC [1]: < 1 µg/mL
MIC [2]: < 1 µg/mL
MIC [3]: < 1 µg/mL
MIC [4]: < 1 µg/mL
MIC [5]: < 1 µg/mL
MIC [6]: < 1 µg/mL

Cc1cc(C)nc(N2CCN(c3ccc(NC(=O)C(=O)c4c(C5CCN(C)CC5)cc5ccccn45)cc3)CC2)c1 [Example 63, N-{4-[4-(4,6-Dimethyl-pyridin-2-yl)-piperazin-1-yl]-phenyl}-2-[2-(1-methyl-piperidin-4-yl)-indolizin-3-yl]-2-oxo-acetamide]
MIC [1]: > 10 µg/mL
MIC [2]: > 10 µg/mL
MIC [3]: > 10 µg/mL
MIC [4]: > 10 µg/mL
MIC [5]: > 10 µg/mL
MIC [6]: > 10 µg/mL
